Legend:
Experiment in all cases: fitness (endpoint OD595 vs no drug) (fraction); higher = more growth
[1] = system: S. pneumoniae D39V
In short: (§1)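 Each well of a 384-well plate received 30 µl of culture at OD595 0.01, or 55 µl for S. pneumoniae. TSB, LB Lennox or CY served as media at 37 °C. OD595 was taken every 30 min for 14 h and corrected by subtracting the first reading. Fitness is the optical density at stationary-phase entry divided by the robust mean of no-drug controls, capped at 1.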

[2] = system: B. subtilis 168
In short: as §1

[3] = system: S. aureus Newman
In short: as §1

O=C(O)[C@H]1/C(=C/CO)O[C@@H]2CC(=O)N21 [Clavulanic acid] + C[C@@H](O)[C@H]1C(=O)N2C(C(=O)O)=C(SCCNC=N)C[C@H]12 [Imipenem]
fitness, [1]
Conditions	partner 0.005 µg/mL	partner 0.0065 µg/mL	partner 0.01 µg/mL	partner 0.013 µg/mL	partner 0.02 µg/mL	partner 0.026 µg/mL
first compound 0.5 µg/mL	0.976	0.974	0.987	0.968	0.935	0.883
first compound 1 µg/mL	0.887	0.92	0.899	0.891	0.888	0.892
first compound 2 µg/mL	0.737	0.82	0.724	0.791	0.655	0.789

O=C(O)[C@H]1/C(=C/CO)O[C@@H]2CC(=O)N21 [Clavulanic acid] + CN(C)C(=O)C(CCN1CCC(O)(c2ccc(Cl)cc2)CC1)(c1ccccc1)c1ccccc1 [Loperamide]
fitness
Conditions	first compound 0.5 µg/mL	first compound 1 µg/mL	first compound 1.5 µg/mL	first compound 2 µg/mL	first compound 3 µg/mL	first compound 6 µg/mL
[1], partner 17.14 µg/mL	0.954	0.95	–	0.836	–	–
[1], partner 20 µg/mL	≥ 1	≥ 1	–	0.89	–	–
[1], partner 34.28 µg/mL	0.931	0.913	–	0.75	–	–
[1], partner 40 µg/mL	≥ 1	≥ 1	–	0.926	–	–
[1], partner 80 µg/mL	0.0391	0.185	–	0.0465	–	–
[2], partner 25 µg/mL	–	–	0.848	–	0.742	0.614

[1], partner 68.57 µg/mL, one replicate
Conditions	fitness
first compound 0.5 µg/mL	0.952
first compound 1 µg/mL	0.944
first compound 2 µg/mL	0.849

O=C(O)[C@H]1/C(=C/CO)O[C@@H]2CC(=O)N21 [Clavulanic acid] + CO/N=C(\C(=O)N[C@@H]1C(=O)N2C(C(=O)O)=C(COC(N)=O)CS[C@H]12)c1ccco1 [Cefuroxime]
fitness, [2]
Conditions	first compound 1.5 µg/mL	first compound 3 µg/mL	first compound 6 µg/mL
partner 0.04875 µg/mL	0.661	0.626	0.562
partner 0.0975 µg/mL	0.651	0.607	0.542
partner 0.195 µg/mL	–	0.345	0.359

fitness, [2], one replicate
Conditions	partner 0.39 µg/mL	partner 0.78 µg/mL	partner 1.562 µg/mL	partner 3.125 µg/mL	partner 6.25 µg/mL
first compound 1.5 µg/mL	0.288	0.232	0.353	0.235	0.202
first compound 3 µg/mL	0.0208	0.0871	0.319	0.276	0.238
first compound 6 µg/mL	0.216	0.172	0.241	0.18	0.142

O=C(O)[C@H]1/C(=C/CO)O[C@@H]2CC(=O)N21 [Clavulanic acid] + COc1cc(Cc2cnc(N)nc2N)cc(OC)c1OC [Trimethoprim]
fitness, [2], one replicate
Conditions	partner 0.1 µg/mL	partner 0.2 µg/mL	partner 0.4 µg/mL	partner 1 µg/mL	partner 2 µg/mL
first compound 1.5 µg/mL	0.89	0.757	0.559	0.507	0.392
first compound 3 µg/mL	0.853	0.693	0.537	0.455	0.388
first compound 6 µg/mL	0.728	0.687	0.482	0.421	0.273

fitness, [2]
Conditions	first compound 1.5 µg/mL	first compound 3 µg/mL	first compound 6 µg/mL
partner 0.125 µg/mL	0.647	0.618	0.55
partner 0.25 µg/mL	0.511	–	–
partner 0.5 µg/mL	0.505	0.494	0.457

CC[C@H]1OC(=O)[C@H](C)[C@@H](O[C@H]2C[C@@](C)(OC)[C@@H](O)[C@H](C)O2)[C@H](C)[C@@H](O[C@@H]2O[C@H](C)C[C@H](N(C)C)[C@H]2O)[C@](C)(O)C[C@@H](C)CN(C)[C@H](C)[C@@H](O)[C@]1(C)O [Azithromycin] + CC1(C)S[C@@H]2[C@H](NC(=O)Cc3ccccc3)C(=O)N2[C@H]1C(=O)O [Penicillin G]
fitness, [3]
Conditions	first compound 0.125 µg/mL	first compound 0.25 µg/mL	first compound 0.5 µg/mL
partner 0.0195 µg/mL	0.844	0.729	0.513
partner 0.039 µg/mL	0.822	0.77	0.452
partner 0.078 µg/mL	0.775	0.741	0.411

Clc1ccc(COC(Cn2ccnc2)c2ccc(Cl)cc2Cl)c(Cl)c1 (stereo unspecified) [Miconazole] + CO[C@@]12[C@H](COC(N)=O)C3=C(C(=O)C(C)=C(N)C3=O)N1C[C@@H]1N[C@@H]12 [Mitomycin C]
fitness, [1]
Conditions	first compound 1.073 µg/mL	first compound 1.25 µg/mL	first compound 2.145 µg/mL	first compound 2.5 µg/mL	first compound 4.29 µg/mL	first compound 5 µg/mL
partner 0.001075 µg/mL	–	0.983	–	0.979	–	0.95
partner 0.002 µg/mL	0.882	–	0.883	–	0.779	–
partner 0.00215 µg/mL	–	0.88	–	0.898	–	0.907
partner 0.004 µg/mL	0.854	–	0.826	–	0.742	–
partner 0.0043 µg/mL	–	0.786	–	0.777	–	0.812
partner 0.008 µg/mL	0.718	–	0.748	–	0.64	–

O=C(O)[C@H]1/C(=C/CO)O[C@@H]2CC(=O)N21 [Clavulanic acid] + CC1(C)S[C@@H]2[C@H](NC(=O)Cc3ccccc3)C(=O)N2[C@H]1C(=O)O [Penicillin G]
fitness, [3], one replicate
Conditions	first compound 0.03125 µg/mL	first compound 0.0625 µg/mL	first compound 0.125 µg/mL
partner 0.0195 µg/mL	0.934	0.859	0.796
partner 0.039 µg/mL	0.851	0.819	0.712
partner 0.078 µg/mL	0.846	0.694	0.613

CNC(C)C1CCC(N)C(OC2C(N)CC(N)C(OC3OCC(C)(O)C(NC)C3O)C2O)O1 (stereo unspecified) [Gentamicin] + CC1(C)S[C@@H]2[C@H](NC(=O)Cc3ccccc3)C(=O)N2[C@H]1C(=O)O [Penicillin G]
fitness, [3], main component drawn
Conditions	first compound 0.375 µg/mL	first compound 0.5 µg/mL	first compound 0.75 µg/mL	first compound 1 µg/mL	first compound 1.5 µg/mL	first compound 2 µg/mL
partner 0.0195 µg/mL	0.836	0.901	0.82	0.937	0.865	0.98
partner 0.039 µg/mL	0.948	0.897	0.914	0.939	0.944	0.96
partner 0.078 µg/mL	0.944	0.842	0.925	0.886	0.918	0.924

O=C(O)[C@H]1/C(=C/CO)O[C@@H]2CC(=O)N21 [Clavulanic acid] + CO[C@H]1/C=C/O[C@@]2(C)Oc3c(C)c(O)c4c(O)c(c(/C=N/N5CCN(C)CC5)c(O)c4c3C2=O)NC(=O)/C(C)=C\C=C\[C@H](C)[C@H](O)[C@@H](C)[C@@H](O)[C@@H](C)[C@H](OC(C)=O)[C@@H]1C [Rifampicin]
fitness, [1]
Conditions	first compound 0.5 µg/mL	first compound 1 µg/mL	first compound 2 µg/mL
partner 0.025 µg/mL	≥ 1	0.919	–
partner 0.1 µg/mL	–	0.421	0.239

[1], partner 0.2 µg/mL, one replicate
Conditions	fitness
first compound 0.5 µg/mL	0
first compound 1 µg/mL	0
first compound 2 µg/mL	0

O=C(O)[C@H]1/C(=C/CO)O[C@@H]2CC(=O)N21 [Clavulanic acid] + CCC[C@@H]1C[C@@H](C(=O)N[C@@H]([C@H]2O[C@H](SC)[C@H](O)[C@@H](O)[C@H]2O)[C@@H](C)O)N(C)C1 [Lincomycin]
fitness
Conditions	partner 0.1 µg/mL	partner 0.2 µg/mL	partner 0.215 µg/mL	partner 0.4 µg/mL	partner 0.43 µg/mL	partner 0.8 µg/mL	partner 0.86 µg/mL
[1], first compound 0.5 µg/mL	–	0.571	0.828	0.326	0.726	0.0312	0.39
[1], first compound 1 µg/mL	–	0.591	0.809	0.354	0.687	0.186	0.332
[1], first compound 2 µg/mL	–	0.406	0.726	0.258	0.606	0.045	0.21
[2], first compound 1.5 µg/mL	0.91	0.868	–	0.892	–	–	–
[2], first compound 3 µg/mL	0.835	0.837	–	0.838	–	–	–
[2], first compound 6 µg/mL	0.822	0.686	–	0.704	–	–	–

fitness, [2], one replicate
Conditions	first compound 1.5 µg/mL	first compound 3 µg/mL	first compound 6 µg/mL
partner 0.8 µg/mL	0.832	0.761	0.729
partner 1.6 µg/mL	0.913	0.802	0.708

O=C(O)[C@H]1/C(=C/CO)O[C@@H]2CC(=O)N21 [Clavulanic acid] + CC(=O)NC[C@H]1CN(c2ccc(N3CCOCC3)c(F)c2)C(=O)O1 [Linezolid]
[2], partner 0.0625 µg/mL, one replicate
Conditions	fitness
first compound 1.5 µg/mL	0.85
first compound 3 µg/mL	0.773
first compound 6 µg/mL	0.789

fitness
Conditions	partner 0.105 µg/mL	partner 0.125 µg/mL	partner 0.2 µg/mL	partner 0.21 µg/mL	partner 0.25 µg/mL	partner 0.4 µg/mL	partner 0.42 µg/mL	partner 0.5 µg/mL	partner 0.8 µg/mL
[1], first compound 0.5 µg/mL	0.808	–	0.474	0.658	–	0.261	0.453	–	0.075
[1], first compound 1 µg/mL	0.801	–	0.531	0.67	–	0.363	0.443	–	0.226
[1], first compound 2 µg/mL	0.749	–	0.392	0.567	–	0.22	0.238	–	0.102
[2], first compound 1.5 µg/mL	–	0.659	–	–	0.247	–	–	0.0633	–
[2], first compound 3 µg/mL	–	0.597	–	–	0.184	–	–	0.025	–
[2], first compound 6 µg/mL	–	0.585	–	–	0.151	–	–	0.0316	–

O=C(O)[C@H]1/C(=C/CO)O[C@@H]2CC(=O)N21 [Clavulanic acid] + C[C@H]1COc2c(N3CCN(C)CC3)c(F)cc3c(=O)c(C(=O)O)cn1c23 [Levofloxacin]
fitness, [2], one replicate
Conditions	first compound 1.5 µg/mL	first compound 3 µg/mL	first compound 6 µg/mL
partner 0.001 µg/mL	0.908	0.852	0.776
partner 0.0078 µg/mL	0.919	0.872	0.82

Conditions	fitness
[1], first compound 0.5 µg/mL, partner 0.1725 µg/mL	0.948
[1], first compound 0.5 µg/mL, partner 0.2 µg/mL	0.914
[1], first compound 0.5 µg/mL, partner 0.345 µg/mL	0.881
[1], first compound 0.5 µg/mL, partner 0.4 µg/mL	0.681
[1], first compound 0.5 µg/mL, partner 0.69 µg/mL	0.61
[1], first compound 0.5 µg/mL, partner 0.8 µg/mL	0.134
[1], first compound 1 µg/mL, partner 0.1725 µg/mL	0.927
[1], first compound 1 µg/mL, partner 0.2 µg/mL	0.805
[1], first compound 1 µg/mL, partner 0.345 µg/mL	0.842
[1], first compound 1 µg/mL, partner 0.4 µg/mL	0.599
[1], first compound 1 µg/mL, partner 0.8 µg/mL	0.242
[1], first compound 2 µg/mL, partner 0.1725 µg/mL	0.841
[1], first compound 2 µg/mL, partner 0.2 µg/mL	0.623
[1], first compound 2 µg/mL, partner 0.345 µg/mL	0.735
[1], first compound 2 µg/mL, partner 0.4 µg/mL	0.431
[1], first compound 2 µg/mL, partner 0.69 µg/mL	0.423
[1], first compound 2 µg/mL, partner 0.8 µg/mL	0.103
[2], first compound 1.5 µg/mL, partner 0.002 µg/mL	0.836
[2], first compound 1.5 µg/mL, partner 0.0039 µg/mL	0.821
[2], first compound 1.5 µg/mL, partner 0.0312 µg/mL	0.0412
[2], first compound 1.5 µg/mL, partner 0.0625 µg/mL	0.0486
[2], first compound 1.5 µg/mL, partner 0.125 µg/mL	0.0536
[2], first compound 3 µg/mL, partner 0.002 µg/mL	0.829
[2], first compound 3 µg/mL, partner 0.0039 µg/mL	0.81
[2], first compound 3 µg/mL, partner 0.0312 µg/mL	0.0294
[2], first compound 3 µg/mL, partner 0.0625 µg/mL	0.0351
[2], first compound 3 µg/mL, partner 0.125 µg/mL	0.0411
[2], first compound 6 µg/mL, partner 0.002 µg/mL	0.734
[2], first compound 6 µg/mL, partner 0.0039 µg/mL	0.72
[2], first compound 6 µg/mL, partner 0.0312 µg/mL	0.0384
[2], first compound 6 µg/mL, partner 0.0625 µg/mL	0.0352
[2], first compound 6 µg/mL, partner 0.125 µg/mL	0.0346

From the supplement of paper PMC10627819
